Test results published in ChEMBL document CHEMBL1201862, “PubChem BioAssay data set” (2004).
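Cultured in 96-well plates, cells were exposed to test compound for 48 hours across five concentrations. GI50 = concentration required for 50% inhibition of growth.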 Activity calls are given as the source filed them. Rule as the data show it: active = GI50 up to about 1.1 µM and inactive = higher.

Experiments:
Assay in all cases: DTP human tumour cell line panel, 48 h
LOX IMVI = test system: LOX IMVI
SNB-19 = test system: SNB-19
A549 = test system: A549
CAKI-1 = test system: CAKI-1
HOP-92 = test system: HOP-92
NCI-H226 = test system: NCI-H226
SF-268 = test system: SF-268
HL-60 = test system: HL-60
Hs-578T = test system: Hs-578T
SNB-75 = test system: SNB-75
SK-OV-3 = test system: SK-OV-3
MDA-MB-435 = test system: MDA-MB-435
HT-29 = test system: HT-29
MCF7 = test system: MCF7
RPMI-8226 = test system: RPMI-8226
SW-620 = test system: SW-620
SF-295 = test system: SF-295
T47D = test system: T47D
786-0 = test system: 786-0
TK-10 = test system: TK-10
OVCAR-8 = test system: OVCAR-8
COLO 205 = test system: COLO 205
EKVX = test system: EKVX
SK-MEL-2 = test system: SK-MEL-2
SK-MEL-5 = test system: SK-MEL-5
SN12C = test system: SN12C
UACC-62 = test system: UACC-62
SF-539 = test system: SF-539
NCI/ADR-RES = test system: NCI/ADR-RES
K562 = test system: K562
UACC-257 = test system: UACC-257
U-251 = test system: U-251
ACHN = test system: ACHN
M14 = test system: M14
IGROV-1 = test system: IGROV-1
NCI-H522 = test system: NCI-H522
BT-549 = test system: BT-549
HCC 2998 = test system: HCC 2998
A498 = test system: A498
MDA-N = test system: MDA-N
HCT-15 = test system: HCT-15
NCI-H460 = test system: NCI-H460
OVCAR-4 = test system: OVCAR-4
HCT-116 = test system: HCT-116
OVCAR-3 = test system: OVCAR-3
OVCAR-5 = test system: OVCAR-5
MDA-MB-231 = test system: MDA-MB-231
UO-31 = test system: UO-31
KM12 = test system: KM12
RXF 393 = test system: RXF 393
SK-MEL-28 = test system: SK-MEL-28
DU-145 = test system: DU-145
HOP-62 = test system: HOP-62
MOLT-4 = test system: MOLT-4
NCI-H23 = test system: NCI-H23
Malme-3M = test system: Malme-3M
PC-3 = test system: PC-3
CCRF-CEM = test system: CCRF-CEM

COc1ccc2c(CCN)c(C(=O)O)[nH]c2c1
GI50 (LOX IMVI): > 100 µM (inactive)
GI50 (SNB-19): > 100 µM (inactive)
GI50 (A549): > 100 µM (inactive)
GI50 (CAKI-1): > 100 µM (inactive)
GI50 (HOP-92): > 100 µM (inactive)
GI50 (NCI-H226): > 100 µM (inactive)
GI50 (SF-268): > 100 µM (inactive)
GI50 (HL-60): > 100 µM (inactive)
GI50 (Hs-578T): > 100 µM (inactive)
GI50 (SNB-75): > 100 µM (inactive)
GI50 (SK-OV-3): > 100 µM (inactive)
GI50 (MDA-MB-435): > 100 µM (inactive)
GI50 (HT-29): > 100 µM (inactive)
GI50 (MCF7): > 100 µM (inactive)
GI50 (RPMI-8226): > 100 µM (inactive)
GI50 (SW-620): > 100 µM (inactive)
GI50 (SF-295): > 100 µM (inactive)
GI50 (T47D): > 100 µM (inactive)
GI50 (786-0): > 100 µM (inactive)
GI50 (TK-10): > 100 µM (inactive)
GI50 (OVCAR-8): > 100 µM (inactive)
GI50 (COLO 205): > 100 µM (inactive)
GI50 (EKVX): > 100 µM (inactive)
GI50 (SK-MEL-2): > 100 µM (inactive)
GI50 (SK-MEL-5): > 100 µM (inactive)
GI50 (SN12C): > 100 µM (inactive)
GI50 (UACC-62): > 100 µM (inactive)
GI50 (SF-539): > 100 µM (inactive)
GI50 (NCI/ADR-RES): > 100 µM (inactive)
GI50 (K562): > 24.5 µM (inactive)
GI50 (UACC-257): > 100 µM (inactive)
GI50 (U-251): > 100 µM (inactive)
GI50 (ACHN): > 100 µM (inactive)
GI50 (M14): > 100 µM (inactive)
GI50 (IGROV-1): > 100 µM (inactive)
GI50 (NCI-H522): > 100 µM (inactive)
GI50 (BT-549): > 100 µM (inactive)
GI50 (HCC 2998): > 100 µM (inactive)
GI50 (A498): > 100 µM (inactive)
GI50 (MDA-N): > 100 µM (inactive)
GI50 (HCT-15): > 100 µM
GI50 (NCI-H460): > 100 µM (inactive)
GI50 (OVCAR-4): > 100 µM (inactive)
GI50 (HCT-116): > 100 µM (inactive)
GI50 (OVCAR-3): > 100 µM (inactive)
GI50 (OVCAR-5): > 100 µM (inactive)
GI50 (MDA-MB-231): > 100 µM (inactive)
GI50 (UO-31): > 100 µM (inactive)
GI50 (KM12): > 100 µM (inactive)
GI50 (RXF 393): > 100 µM (inactive)
GI50 (SK-MEL-28): > 100 µM (inactive)
GI50 (DU-145): > 100 µM (inactive)
GI50 (HOP-62): > 100 µM (inactive)
GI50 (MOLT-4): 1 µM (active)
GI50 (NCI-H23): > 100 µM (inactive)
GI50 (Malme-3M): > 100 µM (inactive)
GI50 (PC-3): > 100 µM (inactive)

COc1cc2oc3c(c(=O)c2c(O)c1/C=C/C(C)C)C(C=C(C)C)Oc1cc(O)ccc1-3 (stereo not drawn)
GI50 (LOX IMVI): 14.2 µM (inactive)
GI50 (SNB-19): 16.4 µM (inactive)
GI50 (A549): 15 µM (inactive)
GI50 (CAKI-1): 18 µM (inactive)
GI50 (HOP-92): 15.6 µM (inactive)
GI50 (NCI-H226): 17.9 µM (inactive)
GI50 (SF-268): 18.7 µM (inactive)
GI50 (HL-60): 17.8 µM (inactive)
GI50 (Hs-578T): 19 µM (inactive)
GI50 (SNB-75): 15.3 µM (inactive)
GI50 (SK-OV-3): 16.6 µM (inactive)
GI50 (MDA-MB-435): 15.9 µM (inactive)
GI50 (HT-29): 14 µM (inactive)
GI50 (MCF7): 14.4 µM (inactive)
GI50 (RPMI-8226): 14.7 µM (inactive)
GI50 (CCRF-CEM): 5.53 µM (inactive)
GI50 (SW-620): 16.1 µM (inactive)
GI50 (SF-295): 17.1 µM (inactive)
GI50 (T47D): 16.4 µM (inactive)
GI50 (786-0): 16.2 µM (inactive)
GI50 (TK-10): 16.4 µM (inactive)
GI50 (OVCAR-8): 16.2 µM (inactive)
GI50 (COLO 205): 15.1 µM (inactive)
GI50 (EKVX): 16.1 µM (inactive)
GI50 (SK-MEL-2): 16 µM (inactive)
GI50 (SK-MEL-5): 18.5 µM (inactive)
GI50 (SN12C): 16.1 µM (inactive)
GI50 (UACC-62): 17.2 µM (inactive)
GI50 (SF-539): 17.5 µM (inactive)
GI50 (NCI/ADR-RES): 16.1 µM (inactive)
GI50 (K562): 7.6 µM (inactive)
GI50 (UACC-257): 18.2 µM (inactive)
GI50 (U-251): 16.7 µM (inactive)
GI50 (ACHN): 15.4 µM (inactive)
GI50 (M14): 13.3 µM (inactive)
GI50 (IGROV-1): 13.5 µM (inactive)
GI50 (NCI-H522): 16.8 µM (inactive)
GI50 (BT-549): 10.6 µM (inactive)
GI50 (HCC 2998): 12.1 µM (inactive)
GI50 (A498): 24.7 µM (inactive)
GI50 (MDA-N): 16.9 µM (inactive)
GI50 (HCT-15): 15.8 µM
GI50 (NCI-H460): 14.5 µM (inactive)
GI50 (OVCAR-4): 16.6 µM (inactive)
GI50 (HCT-116): 14.4 µM (inactive)
GI50 (OVCAR-3): 15 µM (inactive)
GI50 (OVCAR-5): 17 µM (inactive)
GI50 (MDA-MB-231): 18 µM (inactive)
GI50 (UO-31): 12.1 µM (inactive)
GI50 (KM12): 17.2 µM (inactive)
GI50 (SK-MEL-28): 16.5 µM (inactive)
GI50 (DU-145): 16.3 µM (inactive)
GI50 (MOLT-4): 4.83 µM (inactive)
GI50 (NCI-H23): 15.7 µM (inactive)
GI50 (Malme-3M): 22.5 µM (inactive)
GI50 (PC-3): 15.6 µM (inactive)
